In patent US20140137294A1, “GLUCOSINOLATE TRANSPORTER PROTEIN AND USES THEREOF” (UNIVERSITY OF COPENHAGEN, priority 2010, published 2014):

Target: T1, AtGTR1 (Arabidopsis thaliana, UniProt Q944G5)
T1 construct: A library of Arabidopsis transporters available as full length cDNAs from the RIKEN bioresource center; expressed in transfected cells; host or cells: Xenopus oocytes injected with in vitro transcribed cRNA
T1 sequence (Q944G5 31-636 limits assumed): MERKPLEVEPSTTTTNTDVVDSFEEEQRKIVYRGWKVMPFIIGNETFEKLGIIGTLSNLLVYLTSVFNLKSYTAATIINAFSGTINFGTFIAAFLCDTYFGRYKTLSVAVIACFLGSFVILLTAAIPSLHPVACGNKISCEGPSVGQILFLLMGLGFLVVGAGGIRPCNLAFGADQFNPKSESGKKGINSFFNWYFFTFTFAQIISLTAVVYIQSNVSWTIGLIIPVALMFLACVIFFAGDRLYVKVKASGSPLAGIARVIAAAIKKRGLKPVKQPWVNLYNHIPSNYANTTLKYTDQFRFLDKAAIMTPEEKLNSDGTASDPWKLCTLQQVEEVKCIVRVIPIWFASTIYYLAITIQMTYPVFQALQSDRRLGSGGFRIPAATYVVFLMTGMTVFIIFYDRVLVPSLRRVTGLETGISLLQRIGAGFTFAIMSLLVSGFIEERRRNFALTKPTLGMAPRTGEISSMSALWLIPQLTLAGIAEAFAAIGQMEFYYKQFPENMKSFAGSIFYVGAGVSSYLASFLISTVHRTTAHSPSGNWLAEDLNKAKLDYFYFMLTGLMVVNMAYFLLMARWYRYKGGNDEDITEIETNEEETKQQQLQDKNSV
Experiment: Uptake of C14-labeled pOHBG in AtGTR1 expressing oocytes in presence of excess competitor
Assay type: cell-based
Settings: 50× excess unlabeled competitor, AtGTR1, pH 5
Experimental: FIG. 3: Biochemical analysis of AtGTR1 and 2 mediated GSL transport in Xenopus oocytes. A and B, pH dependence of AtGTR-mediated GSL transport. A, AtGTR2 mediated 4-MTB uptake measured by LC-MS analysis of oocyte extracts, n=3 oocytes. B, AtGTR1 currents induced by 1 mM 4-MTB were measured at different membrane potentials at pH 5 ([…]), pH 6 (♦), and pH 7 (▴). Currents were normalized to the current induced at pH 5 at −60 mV, error bars are SD, n=4 oocytes. C and D, kinetic analysis of AtGTR-mediated glucosinolate transport. […]
The substrate specificity investigations were extended to include substrates previously identified for the NRT/PTR transporter family namely di- and tripeptides and nitrate. […] However, perfusing with 1 mM NO3^− did result in currents but these amounted only to 1/10th of currents measured when perfusing with 100 μM 4-MTB (FIG. 3F). […]
For assays with radiolabeled substrates, single oocytes were ruptured in 100 μl 10% SDS in 4 ml scintillation vials by shaking for 20-30 minutes. 2.5 ml EcoScint™ scintillation fluid (National Diagnostics) was added, and imported compounds quantified by scintillation counting. For assays with unlabeled substrates, oocyte extracts were analysed by LC-MS. Oocytes were analyzed in batches of 5 oocytes per repetition. […]

CSCCCC/C(=N/OS(=O)(=O)O)S[C@@H]1O[C@H](CO)[C@@H](O)[C@H](O)[C@H]1O [4-MTB, 4-methylthiobutyl glucosinolate] was tested, and the “effect on uptake of 40 μM C14-labeled pOHBG” value was “reduced the uptake of pOHBG to background levels”.
